The source of these data is patent publication US9512115B2, “Inhibitors” (PROBIODRUG AG, priority 2013, dated 2016).

The series can be described thus: Pharmacokinetic parameters in mice after oral administration (plasma, brain, CSF). Format: in vivo, mice (strain CD-1). The settings on record: brain tissue vs plasma; CD-1 mice, 30 mg/kg orally. On the procedure: The mice were anesthetized with Isoflurane. Approximate 200 μL of each blood sample were collected via cardiac puncture for terminal bleeding into K2EDTA tubes. […] CSF collection: The animals were euthanized with pure CO2 inhalation. A mid line incision was made on the neck. The muscle under the skin was cut to expose the cisterna magna. The cisterna magna was penetrated with the sharp end of a capillary and CSF was collected via capillarity. […] A mid-line incision was made in the animal scalp. The brain was removed and rinsed with cold saline. Brain was placed into a screw-top tube and weighed. […] The brain concentration was corrected with a dilution factor of 4 as following: Brain concentration=brain homogenate conc.×4, assuming 1 g wet brain tissue equals to 1 ml. For plasma samples: […] For Brain samples: Brain tissue was homogenized for 2 min with 3 volumes (v/w) of PBS. […] For CSF samples: […] Tmax, T1/2, AUC and log BB values were calculated using conventional methods.
The compound `CC(F)(F)CCOc1ccc([C@H]2COC(=O)N2c2ccc3[nH]cnc3c2)c(F)c1F` [compound 1, (S)-3-(1H-benzo[d]imidazol-5-yl)-4-(4-(3,3-difluorobutoxy)-2,3-difluorophenyl)-oxazolidin-2-one] displayed a logBB of −0.9363.
Take `O=C1OC[C@H](c2ccc(OCCC(F)F)cc2F)N1c1ccc2[nH]cnc2c1` [compound 2, (S)-3-(1H-benzo[d]imidazol-5-yl)-4-(4-(3,3-difluoropropoxy)-2-fluorophenyl)oxazolidin-2-one]: the logBB was −1.1517.
For `CC(F)(F)CCOc1ccc([C@H]2COC(=O)N2c2ccc3[nH]cnc3c2)c(F)c1` [compound 3, (S)-3-(1H-benzo[d]imidazol-5-yl)-4-(4-(3,3-difluorobutoxy)-2-fluorophenyl)oxazolidin-2-one] the value was −1.0428; for `CC(F)(F)COc1ccc([C@H]2COC(=O)N2c2ccc3[nH]cnc3c2)cc1F` [compound 5, (S)-3-(1H-benzo[d]imidazol-5-yl)-4-(4-(2,2-difluoropropoxy)-3-fluorophenyl)oxazolidin-2-one], −1.0928.
For `CC(F)(F)COc1ccc([C@H]2COC(=O)N2c2ccc3[nH]cnc3c2)c(F)c1F` [compound 6, (S)-3-(1H-benzo[d]imidazol-5-yl)-4-(4-(2,2-difluoropropoxy)-2,3-difluorophenyl)oxazolidin-2-one] the value was −1.0431; for `CC(F)(F)COc1ccc([C@H]2COC(=O)N2c2ccc3[nH]cnc3c2)c(F)c1` [compound 7, (S)-3-(1H-benzo[d]imidazol-5-yl)-4-(4-(2,2-difluoropropoxy)-2-fluorophenyl)oxazolidin-2-one], −0.9439.
To `CC(F)(F)COc1c(F)cc([C@H]2COC(=O)N2c2ccc3[nH]cnc3c2)cc1F` [compound 8, (S)-3-(1H-benzo[d]imidazol-5-yl)-4-(4-(2,2-difluoropropoxy)-3,5-difluorophenyl)oxazolidin-2-one] belongs −0.9993; to `CC(F)(F)CCOc1ccc([C@H]2COC(=O)N2c2ccc3[nH]cnc3c2)cc1F` [compound 10, (S)-3-(1H-benzo[d]imidazol-5-yl)-4-(4-(3,3-difluorobutoxy)-3-fluorophenyl)oxazolidin-2-one], −1.1234.
As to `O=C1OC[C@H](c2ccc(OCCC(F)F)c(F)c2F)N1c1ccc2[nH]cnc2c1` [compound 11, (S)-3-(1H-benzo[d]imidazol-5-yl)-4-(4-(3,3-difluoropropoxy)-2,3-difluorophenyl)oxazolidin-2-one], the logBB is on record as −0.9451.
Take `O=C1OC[C@H](c2ccc(OCCC(F)F)c(F)c2)N1c1ccc2[nH]cnc2c1` [compound 12, (S)-3-(1H-benzo[d]imidazol-5-yl)-4-(4-(3,3-difluoropropoxy)-3-fluorophenyl)oxazolidin-2-one]: the logBB is −1.1821.
For `O=C1OC[C@H](c2ccc(N3CCC(F)(F)C3)cc2F)N1c1ccc2[nH]cnc2c1` [compound 18, (S)-3-(1H-benzo[d]imidazol-5-yl)-4-(4-(3,3-difluoropyrrolidin-1-yl)-2-fluorophenyl)-oxazolidin-2-one] the value was −1.2913; for `O=C1OC[C@H](c2ccc(N3CCC(F)(F)C3)c(F)c2F)N1c1ccc2[nH]cnc2c1` [compound 19, (S)-3-(1H-benzo[d]imidazol-5-yl)-4-(4-(3,3-difluoropyrrolidin-1-yl)-2,3-difluorophenyl)-oxazolidin-2-one], −1.2208; for `O=C1OC[C@H](c2ccc(N3CCC(F)(F)C3)c(F)c2)N1c1ccc2[nH]cnc2c1` [compound 21, (S)-3-(1H-benzo[d]imidazol-5-yl)-4-(4-(3,3-difluoropyrrolidin-1-yl)-3-fluorophenyl) oxazolidin-2-one], −1.208.
